Laboratory results reported in article PMC10895678 (Journal of Medicinal Chemistry, 2024).

How the values were obtained:
BCG pTIC6-fbpC = format: cell-based, Mycobacterium bovis BCG
BCG pTIC6-fbpA = format: cell-based, Mycobacterium bovis BCG
BCG pTIC6-fbpB = format: cell-based, Mycobacterium bovis BCG
M. tuberculosis H37Rv = experiment: Mycobacterial time kill experiments (total viable counts); format: cell-based, Mycobacterium tuberculosis; details: 29 μM, by day 10, to limit of detection (100 CFU mL^–1)
M. bovis BCG = experiment: microbe, parasite or virus in culture; format: cell-based, Mycobacterium bovis BCG
M. smegmatis = experiment: MIC determination, resazurin end point assay, M. smegmatis; format: cell-based, Mycobacterium smegmatis

Compound: O=c1c2ccccc2[se]n1-c1ccccc1 [Ebselen, reference compound]
- BCG pTIC6-fbpC MIC (BCG pTIC6-fbpC): 98 µM
- increase in MIC upon overexpression of FbpC (BCG pTIC6-fbpC): three-fold increase
- BCG pTIC6-fbpA MIC (BCG pTIC6-fbpA): 28 µM
- shift in MIC upon overexpression of FbpA (BCG pTIC6-fbpA): No shift in MIC
- BCG pTIC6-fbpB MIC (BCG pTIC6-fbpB): 90 µM
- increase in MIC upon overexpression of FbpB (BCG pTIC6-fbpB): three-fold increase

Compound: NNC(=O)c1ccncc1 [Isoniazid, reference compound]
- reduction of total viable count (M. tuberculosis H37Rv): > 4.52 ± 0.60 log10 CFU mL^–1

Compound: (rac)-1-(((2,4-cis)-1-(2-bromobenzyl)-4-phenylazetidin-2-yl)methyl)-4-(4-(trifluoromethyl)phenyl)piperidine [BGAz-016]
- BCG MIC99 (M. bovis BCG; resazurin end point assay, modified Gompertz function, three biological replicates): 60 µM
- MIC50 BCG (M. bovis BCG; supplementary MIC data file): 48 µM
- MIC99 BCG (M. bovis BCG; supplementary MIC data file): 60 µM
- MIC99 (M. smegmatis; resazurin end point assay, modified Gompertz function, three biological replicates, read-out: M. smeg. MIC99): 100 µM
- MIC50 smegmatis (M. smegmatis; supplementary MIC data file): 34 µM
- MIC99 smegmatis (M. smegmatis; supplementary MIC data file): > 100 µM
